In PMC3638638, “Metabonomics Combined with UPLC-MS Chemical Profile for Discovery of Antidepressant Ingredients of a Traditional Chinese Medicines Formula, Chaihu-Shu-Gan-San” (Evidence-based Complementary and Alternative Medicine : eCAM, 2013):
Structures can show the parent of a compound that is named as a salt. Where two headings read alike, the source gives them in different places.

Assays:
rat MAO-A = biological target: T1, rat MAO-A (Rattus norvegicus, UniProt P21396); assay: Monoamine oxidase A (MAO-A) activity assay, spectrophotometric enzymatic kit; format: biochemical
T1 sequence (P21396 1-526): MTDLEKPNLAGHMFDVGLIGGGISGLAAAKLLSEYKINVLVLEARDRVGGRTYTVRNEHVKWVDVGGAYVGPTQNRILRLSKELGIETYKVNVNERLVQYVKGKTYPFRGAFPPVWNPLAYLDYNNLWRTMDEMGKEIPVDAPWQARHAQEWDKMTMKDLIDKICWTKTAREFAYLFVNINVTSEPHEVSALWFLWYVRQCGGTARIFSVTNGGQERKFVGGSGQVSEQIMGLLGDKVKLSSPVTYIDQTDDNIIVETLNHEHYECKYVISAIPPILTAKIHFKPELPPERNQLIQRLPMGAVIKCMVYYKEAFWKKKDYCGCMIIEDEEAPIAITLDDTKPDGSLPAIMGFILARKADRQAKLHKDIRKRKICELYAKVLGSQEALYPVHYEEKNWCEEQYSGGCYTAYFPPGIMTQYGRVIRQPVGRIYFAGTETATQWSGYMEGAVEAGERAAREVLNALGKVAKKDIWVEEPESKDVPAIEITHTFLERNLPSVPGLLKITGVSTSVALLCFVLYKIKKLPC
Protocol: MAO was purified from the rat liver according to the Gómez method after minor modification. The liver tissue was rapidly removed into ice cold homogenized (1 : 10, w/v) in 50 mM KH2PO4 buffer, pH 7.2, containing […]. Following centrifugation at 1000 g for 10 min, the supernatant was centrifuged at 10,000 g for 30 min to obtain crude mitochondrial pellet.
The MAO-A activity was measured by spectrophotometrically (Mapada, UV-3100, China) using enzymatic kits according to the instructions (Nanjing Jiancheng Institute of Biotechnology). IC50 values were used to estimate the inhibition calculated in relation to a sample of the enzyme treated under the same conditions without inhibitor, versus inhibitor concentration.

[1] = design: method as in PMID 3435494, PMID 20515525; conditions: must be hydrolyzed by gut microflora enzymes to aglycone naringenin; cited from earlier work
CUMS treated rats = assay: Ethological study of antidepressant effect on CUMS rat model (body weight, open-field test, sucrose consumption); format: in vivo; conditions: n=8
Protocol: 40 healthy, adult, male Wistar rats, weighing 200 ± 20 g each, were purchased from the Institute of Laboratory Animal Science, CAMS and PUMC (Beijing, China). The rats were housed individually in cages for one week to adapt to the environment under controlled conditions of 12 h light–12 h dark cycles (lights on from 6:00 a.m. to 6:00 p.m.), […], and temperature (20 ± 3°C) with commercial diet and water available ad libitum. All experimental procedures were approved by the Ethics Committee of the Institute of Medicinal Plant Development, CAMS & PUMC.
All rats except control group were subjected to a series of variable stimuli as previously described after minor modification.
The antidepressant effects of CSGS and QZ extracts were evaluated on a CUMS rat model, a well-validated animal model of depression (see supplementary material Table S1 available online at http://dx.doi.org/10.1155/2013/487158).

[2] = rat MAO-A as enzyme source (rat liver mitochondrial pellet)
[3] = rat MAO-A as enzyme source (rat liver mitochondrial pellet), read-out: IC50, inhibition against MAO-A activity

IC50, inhibition against MAO-A activity (rat MAO-A; [2]) | IC50 (rat MAO-A; [3]) | SMILES | IC50 (rat MAO-A) | also measured
relatively weak | 26.7 µM | COc1ccc([C@@H]2CC(=O)c3c(O)cc(O[C@@H]4O[C@H](CO[C@@H]5O[C@@H](C)[C@H](O)[C@@H](O)[C@H]5O)[C@@H](O)[C@H](O)[C@H]4O)cc3O2)cc1O [Hesperidin] |  | 
relatively weak | 93.8 µM | COc1ccc([C@@H]2CC(=O)c3c(O)cc(O[C@@H]4O[C@H](CO)[C@@H](O)[C@H](O)[C@H]4O[C@@H]4O[C@@H](C)[C@H](O)[C@@H](O)[C@H]4O)cc3O2)cc1O [Neohesperidin] |  | 
 |  | C[C@@H]1O[C@@H](O[C@H]2[C@H](Oc3cc(O)c4c(c3)O[C@H](c3ccc(O)cc3)CC4=O)O[C@H](CO)[C@@H](O)[C@@H]2O)[C@H](O)[C@H](O)[C@H]1O [Naringin] | 5.82 µM | Absorption from the gastrointestinal tract in its original form [1]: poorly absorbed
 |  | CNCCC(Oc1ccc(C(F)(F)F)cc1)c1ccccc1 (stereo not drawn) [Positive control, Fluoxetine hydrochloride] |  | Body weight, 0W (CUMS treated rats; 0W (baseline), mean): 191.702 g; Sucrose consumption, 4W (CUMS treated rats; 4W of treatment): 17.5 g; Open-field test (OFT), 0W (CUMS treated rats; horizontal movements, 0W (baseline), mean): 81.7; Open-field test (OFT), 4W (CUMS treated rats; horizontal movements, 4W of treatment, mean): 61.4

SMILES | IC50, inhibition against MAO-A activity (rat MAO-A; [2]) | IC50 (rat MAO-A; [3]) | IC50 (rat MAO-A) | also measured
CNCC(O)c1ccc(O)cc1 (stereo not drawn) [Synephrine] | relatively weak |  | 15.2 µM | 
